Results published in US8609708B2 (Human BioMolecular Research Institute, priority 2003, dated 2013).
Read-outs that look alike come from different tables or passages of the source.

Tests used:
[1] = target: CYP3A4 relative to CYP2A6 (Homo sapiens (Human), UniProt P08684); assay: in vitro; conditions: human; for selectivity ratio at 30 min: pH 7.5
Method: (§1) To gain insight into the selectivity of the synthetic compounds, nicotine, nicotine related alkaloids and nicotine metabolites for inhibition of other CYPs, we examined the major CYP present in human liver (i.e., CYP 3A4). […] A typical incubation mixture ([…] ), 0.5 mM NADP^+, 2.0 mM G6P, 1 U of G6P dehydrogenase, […] inhibitor was added last as to minimize interaction with the protein. After mixing on ice, the reaction was initiated by the addition of substrate and incubated at 37° C. with shaking in air. Organic extracts were injected onto a Hitachi L-7100 system equipped with a Hitachi L-7400 UV detector. Separations were done with an Altex Ultrasphere ODS (4.6 mm×250 mm, 5 μm) column. The analytes were eluted with an isocratic solvent system consisting of water/acetonitrile/methanol (30:10:60, v/v/v) at a flow rate of 1.0 mL/min. […] Quantification of substrate and metabolite was determined from peak areas of the chromatogram and comparison with standard curves. IC50 values were determined as described below.
(§2) To measure CYP3A4 activity, testosterone 6-hydroxylation was determined.

[2] = target: CYP3A4 (Homo sapiens (Human), UniProt P08684); assay: CYP3A4 inhibition assay (testosterone 6-hydroxylation)
CYP3A4, sequence (P08684 whole entry): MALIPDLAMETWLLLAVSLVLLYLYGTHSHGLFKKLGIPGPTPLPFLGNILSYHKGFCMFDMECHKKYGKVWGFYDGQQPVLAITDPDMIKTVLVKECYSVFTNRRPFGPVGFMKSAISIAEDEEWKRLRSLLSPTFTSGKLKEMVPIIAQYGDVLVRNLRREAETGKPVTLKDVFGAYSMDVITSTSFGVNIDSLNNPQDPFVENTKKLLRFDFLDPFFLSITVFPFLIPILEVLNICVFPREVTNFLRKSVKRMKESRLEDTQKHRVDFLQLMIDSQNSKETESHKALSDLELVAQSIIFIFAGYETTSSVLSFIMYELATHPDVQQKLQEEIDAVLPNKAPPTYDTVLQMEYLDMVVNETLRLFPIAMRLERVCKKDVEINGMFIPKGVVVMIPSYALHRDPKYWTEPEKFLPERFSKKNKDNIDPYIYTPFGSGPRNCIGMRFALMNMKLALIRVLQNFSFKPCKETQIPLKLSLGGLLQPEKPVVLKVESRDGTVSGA
Method: as §1, §2

[3] = target: T1, human CYP2A6 (Homo sapiens (Human), UniProt P11509); assay: CYP2A6 mediated coumarin 7-hydroxylation inhibition; conditions: for Ki: apparent Ki from IC50 by Cheng-Prusoff
T1 sequence (P11509 whole entry): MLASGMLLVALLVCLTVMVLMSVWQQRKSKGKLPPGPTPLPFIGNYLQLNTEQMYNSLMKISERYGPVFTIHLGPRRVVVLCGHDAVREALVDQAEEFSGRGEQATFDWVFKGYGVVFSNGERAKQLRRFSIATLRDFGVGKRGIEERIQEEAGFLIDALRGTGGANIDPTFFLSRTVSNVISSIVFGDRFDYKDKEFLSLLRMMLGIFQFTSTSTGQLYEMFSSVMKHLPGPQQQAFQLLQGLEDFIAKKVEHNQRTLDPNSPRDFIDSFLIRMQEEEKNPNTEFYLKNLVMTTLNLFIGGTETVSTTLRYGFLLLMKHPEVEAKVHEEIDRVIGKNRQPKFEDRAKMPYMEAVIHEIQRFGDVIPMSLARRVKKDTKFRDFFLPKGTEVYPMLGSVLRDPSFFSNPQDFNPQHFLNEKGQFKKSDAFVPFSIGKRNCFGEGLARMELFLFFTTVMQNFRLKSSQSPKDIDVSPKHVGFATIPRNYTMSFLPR

[4] = target: CYP2C19 (Homo sapiens (Human), UniProt P33261); assay: CYP2C19 Vivid blue substrate O-dealkylation inhibition; format: biochemical; conditions: insect cell microsomes expressing CYP2C19, 0.2M potassium phosphate buffer; mean of at least 3 determinations ± SD; read-out: IC50 ± SD 2C19
[5] = target: CYP2C19 relative to CYP2A6 (Homo sapiens (Human), UniProt P33261); assay: as above; format: biochemical; conditions: recombinant CYP2C19 BACULOSOMES, pH 8, probe Vivid blue substrate (10 μM), O-dealkylation
CYP2C19 relative to CYP2A6, sequence (P33261 whole entry): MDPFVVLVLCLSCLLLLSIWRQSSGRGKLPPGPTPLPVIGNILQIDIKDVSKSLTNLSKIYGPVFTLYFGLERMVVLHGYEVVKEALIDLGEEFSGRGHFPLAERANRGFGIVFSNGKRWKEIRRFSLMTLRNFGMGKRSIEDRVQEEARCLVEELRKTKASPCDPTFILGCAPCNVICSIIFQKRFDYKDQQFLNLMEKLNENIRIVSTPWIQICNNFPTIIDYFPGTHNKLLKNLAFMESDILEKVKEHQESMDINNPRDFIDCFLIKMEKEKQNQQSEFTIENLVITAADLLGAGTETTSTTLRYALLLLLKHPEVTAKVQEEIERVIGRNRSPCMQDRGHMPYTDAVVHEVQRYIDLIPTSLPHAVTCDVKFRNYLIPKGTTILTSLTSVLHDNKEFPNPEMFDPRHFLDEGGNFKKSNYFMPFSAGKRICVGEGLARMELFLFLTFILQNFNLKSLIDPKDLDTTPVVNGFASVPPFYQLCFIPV

[6] = target: CYP2D6 relative to CYP2A6 (Homo sapiens (Human), UniProt P10635); assay: CYP2D6 Vivid blue substrate O-dealkylation inhibition; format: biochemical; conditions: recombinant CYP2D6 BACULOSOMES, pH 8, probe Vivid blue substrate (10 μM), O-dealkylation
CYP2D6 relative to CYP2A6, sequence (P10635 whole entry): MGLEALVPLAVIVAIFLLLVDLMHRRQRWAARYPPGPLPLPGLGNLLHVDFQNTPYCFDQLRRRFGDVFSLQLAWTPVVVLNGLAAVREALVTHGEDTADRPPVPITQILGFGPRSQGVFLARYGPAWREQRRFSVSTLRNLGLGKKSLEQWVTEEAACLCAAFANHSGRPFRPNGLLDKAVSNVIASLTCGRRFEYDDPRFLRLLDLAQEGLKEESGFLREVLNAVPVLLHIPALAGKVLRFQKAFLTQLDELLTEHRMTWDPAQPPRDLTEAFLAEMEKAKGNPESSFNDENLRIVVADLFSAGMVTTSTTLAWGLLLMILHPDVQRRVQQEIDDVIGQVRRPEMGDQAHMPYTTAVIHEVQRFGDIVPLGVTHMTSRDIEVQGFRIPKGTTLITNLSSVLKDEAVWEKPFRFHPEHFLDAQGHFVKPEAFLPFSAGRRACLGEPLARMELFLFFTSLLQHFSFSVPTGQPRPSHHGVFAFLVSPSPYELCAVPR

[7] = target: CYP2D6 (Homo sapiens (Human), UniProt P10635); assay: as above; format: biochemical; conditions: insect cell microsomes expressing CYP2D6, 0.2M potassium phosphate buffer; mean of at least 3 determinations ± SD; read-out: IC50 ± SD 2D6
CYP2D6, sequence (P10635 whole entry): as above

[8] = target: CYP2C9 relative to CYP2A6 (Homo sapiens (Human), UniProt P11712); assay: CYP2C9 Vivid blue substrate O-dealkylation inhibition; format: biochemical; conditions: for selectivity ratio at 40 min: recombinant CYP2C9 BACULOSOMES, pH 8, probe Vivid blue substrate (10 μM), O-dealkylation
CYP2C9 relative to CYP2A6, sequence (P11712 whole entry): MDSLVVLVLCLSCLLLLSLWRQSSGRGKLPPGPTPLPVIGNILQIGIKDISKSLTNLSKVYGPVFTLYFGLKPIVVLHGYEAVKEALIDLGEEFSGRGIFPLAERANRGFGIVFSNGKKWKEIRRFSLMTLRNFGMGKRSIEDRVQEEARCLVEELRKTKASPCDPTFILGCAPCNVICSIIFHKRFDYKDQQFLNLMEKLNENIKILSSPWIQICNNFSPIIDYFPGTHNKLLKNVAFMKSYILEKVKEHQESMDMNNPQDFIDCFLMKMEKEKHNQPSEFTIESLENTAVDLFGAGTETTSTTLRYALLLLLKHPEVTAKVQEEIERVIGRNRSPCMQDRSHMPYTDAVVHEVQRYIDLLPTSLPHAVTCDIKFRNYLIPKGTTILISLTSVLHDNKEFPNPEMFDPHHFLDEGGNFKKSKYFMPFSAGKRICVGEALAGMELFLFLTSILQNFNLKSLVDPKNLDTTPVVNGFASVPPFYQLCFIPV

[9] = target: CYP2C9 (Homo sapiens (Human), UniProt P11712); assay: as above; format: biochemical
CYP2C9, sequence (P11712 whole entry): as above

[10] = target: CYP2B6 (Homo sapiens (Human), UniProt P20813); assay: CYP2B6 Vivid blue substrate O-dealkylation inhibition; format: biochemical; conditions: insect cell microsomes expressing CYP2B6, 0.2M potassium phosphate buffer; mean of at least 3 determinations ± SD; read-out: IC50 ± SD 2B6
CYP2B6, sequence (P20813 whole entry): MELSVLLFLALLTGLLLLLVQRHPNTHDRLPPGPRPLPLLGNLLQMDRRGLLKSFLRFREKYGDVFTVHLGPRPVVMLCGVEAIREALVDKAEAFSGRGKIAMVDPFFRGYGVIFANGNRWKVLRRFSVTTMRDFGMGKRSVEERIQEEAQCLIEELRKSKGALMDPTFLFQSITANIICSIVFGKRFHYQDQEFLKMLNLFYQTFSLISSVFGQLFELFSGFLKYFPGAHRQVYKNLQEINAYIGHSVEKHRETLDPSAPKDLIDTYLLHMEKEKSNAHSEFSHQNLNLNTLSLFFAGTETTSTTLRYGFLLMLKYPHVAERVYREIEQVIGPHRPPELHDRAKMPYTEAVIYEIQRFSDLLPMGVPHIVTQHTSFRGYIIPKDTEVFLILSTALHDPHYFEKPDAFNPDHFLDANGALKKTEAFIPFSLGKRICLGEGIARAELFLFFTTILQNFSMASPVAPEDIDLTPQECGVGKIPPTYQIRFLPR

[11] = target: CYP2B6 relative to CYP2A6 (Homo sapiens (Human), UniProt P20813); assay: as above; format: biochemical
CYP2B6 relative to CYP2A6, sequence (P20813 whole entry): as above

[12] = target: CYP2E1 relative to CYP2A6 (Homo sapiens (Human), UniProt P05181); assay: CYP2E1 Vivid blue substrate O-dealkylation inhibition; format: biochemical
CYP2E1 relative to CYP2A6, sequence (P05181 whole entry): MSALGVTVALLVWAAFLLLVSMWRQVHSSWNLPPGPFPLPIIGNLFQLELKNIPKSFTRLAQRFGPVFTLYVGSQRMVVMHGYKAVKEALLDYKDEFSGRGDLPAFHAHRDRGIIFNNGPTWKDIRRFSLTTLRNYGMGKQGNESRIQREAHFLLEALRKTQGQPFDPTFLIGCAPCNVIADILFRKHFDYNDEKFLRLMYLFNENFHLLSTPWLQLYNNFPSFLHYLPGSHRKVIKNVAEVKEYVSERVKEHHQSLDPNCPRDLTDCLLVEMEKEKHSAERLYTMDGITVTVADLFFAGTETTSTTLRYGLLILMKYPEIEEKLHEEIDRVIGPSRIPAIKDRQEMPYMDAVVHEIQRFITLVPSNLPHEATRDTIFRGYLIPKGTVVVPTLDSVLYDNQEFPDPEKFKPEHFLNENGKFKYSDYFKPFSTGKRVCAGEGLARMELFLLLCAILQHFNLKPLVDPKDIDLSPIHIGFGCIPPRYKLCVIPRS

[13] = target: CYP2E1 (Homo sapiens (Human), UniProt P05181); assay: as above; format: biochemical; conditions: insect cell microsomes expressing CYP2E1, 0.2M potassium phosphate buffer; mean of at least 3 determinations ± SD; read-out: IC50 ± SD 2E1
CYP2E1, sequence (P05181 whole entry): as above

[14] = target: T1, human CYP2A6
[15] = Mouse liver microsome stability assay; conditions: mouse, mouse liver microsomes, pH 7.4
Method: The residue was reconstituted in methanol (200 μL), centrifuged at 13,000 rpm for 5 min and the supernatant was analyzed by high-performance liquid chromatography with an Axxi-chrom (straight-phase) silica column (4.6 mm×250 mm, 5 μm) or with a Supelco (reverse-phase) HS F5 pentafluorophenyl column (4.6 mm×250 mm, 5 μm).

[16] = target: T2, P450 2A6dH (Homo sapiens (Human), UniProt P11509, INS494HHHH)
T2 sequence (P11509 other isoform, or with tags, fused parts or gaps 1-28 replaced by MAKKTS/ins HHHH behind 494): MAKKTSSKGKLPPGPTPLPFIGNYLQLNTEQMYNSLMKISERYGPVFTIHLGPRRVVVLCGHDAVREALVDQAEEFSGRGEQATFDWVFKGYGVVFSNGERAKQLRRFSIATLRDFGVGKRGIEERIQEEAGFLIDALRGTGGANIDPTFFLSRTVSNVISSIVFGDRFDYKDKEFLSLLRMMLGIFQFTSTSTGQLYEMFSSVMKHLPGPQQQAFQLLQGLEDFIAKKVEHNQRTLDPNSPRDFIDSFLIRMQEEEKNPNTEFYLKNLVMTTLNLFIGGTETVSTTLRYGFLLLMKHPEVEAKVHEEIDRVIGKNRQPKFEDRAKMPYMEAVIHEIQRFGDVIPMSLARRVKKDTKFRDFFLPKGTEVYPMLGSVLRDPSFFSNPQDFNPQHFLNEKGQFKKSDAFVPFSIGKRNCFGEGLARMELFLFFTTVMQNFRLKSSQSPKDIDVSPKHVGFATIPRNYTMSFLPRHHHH
Method: (§3) Subsequently, test compound (in 100% ethanol, 10 μM) was added to both the cuvettes. The maximal ethanol concentration used was 2%. The difference spectra were obtained after the system reached equilibrium (3 min). All spectra were recorded at 25° C.

[17] = target: T2, P450 2A6dH; assay: Difference spectra of test compounds with N-terminal truncated CYP2A6; conditions: difference spectrum with truncated CYP2A6
Method: as §3

[18] = read-out: IC50 ± SD 2A6, insect cell microsomes expressing CYP2A6, 0.1M Tris buffer, mean of at least 3 determinations ± SD
[19] = human, read-out: 2C19/2A6 selectivity ratio (IC50 CYPX/IC50 CYP2A6)
[20] = human, read-out: 2D6/2A6 selectivity ratio (IC50 CYPX/IC50 CYP2A6)

CYP3A4 relative to CYP2A6, sequence (P08684 whole entry): as the sequence (P08684 whole entry) above

Cc1ccc(-c2cccnc2)nc1 [Compound 46]
selectivity ratio ([1]; pH 7.5, Selectivity Ratio: IC50 (Inhibition of CYP3A4)/IC50 (Inhibition of CYP2A6), Table 1): 5 | IC50 ([2]; read-out: CYP3A4 IC50, testosterone 6-hydroxylation): 84.2 ± 19.5 µM | IC50 ([3]; read-out: CYP2A6 IC50, coumarin 7-hydroxylation): 16.5 ± 3.8 µM

c1ccc(Cn2cnc(-c3cccnc3)c2)cc1 [Compound 60, 3-(1-benzyl-1H-imidazol-4-yl)pyridine]
IC50 [4]: 12.1 ± 0.6 µM | selectivity ratio at 40 min ([5]; human CYP2C19 versus human CYP2A6, read-out: Selectivity ratio (IC50 CYPX/IC50 CYP2A6) 2C19/2A6): 9 | selectivity ratio at 40 min ([6]; human CYP2D6 versus human CYP2A6, read-out: Selectivity ratio (IC50 CYPX/IC50 CYP2A6) 2D6/2A6): 26 | IC50 [7]: 36.3 ± 4.4 µM | selectivity ratio at 40 min ([8]; human CYP2C9 versus human CYP2A6, read-out: Selectivity ratio (IC50 CYPX/IC50 CYP2A6) 2C9/2A6): 19 | IC50 ([9]; insect cell microsomes expressing CYP2C9, 0.2M potassium phosphate buffer, mean of at least 3 determinations ± SD, read-out: IC50 ± SD 2C9): 26.9 ± 2.9 µM | IC50 [10]: 5.3 ± 0.9 µM | selectivity ratio at 40 min ([11]; recombinant CYP2B6 BACULOSOMES, pH 8, probe Vivid blue substrate (5 μM), O-dealkylation, human CYP2B6 versus human CYP2A6, read-out: Selectivity ratio (IC50 CYPX/IC50 CYP2A6) 2B6/2A6): 4 | selectivity ratio at 40 min ([12]; human, pH 8): 0.4 | IC50 [13]: 0.58 ± 0.1 µM | selectivity ratio at 30 min [1]: > 54 | IC50 ([2]; microsomes, pH 7.5): 75.1 ± 13.9 µM | Ki ([3]; coumarin 7-hydroxylation): 0.23 ± 0.03 µM | IC50 [3, 18]: 1.4 ± 0.2 µM

c1cncc(-c2ccc(CNCc3ccc(-c4cccnc4)s3)s2)c1 [Compound 38b, bis((5-(pyridin-3-yl)thiophen-2-yl)methyl)amine]
IC50 [4]: 0.21 ± 0.03 µM | selectivity ratio at 40 min [5, 19]: 0.03 | selectivity ratio at 40 min [6, 20]: 1.7 | IC50 [7]: 12.9 ± 1.9 µM | selectivity ratio ([8]; human, pH 8, 2C9/2A6 selectivity ratio (IC50 CYPX/IC50 CYP2A6)): 0.1 | selectivity ratio ([8]; human, pH 8, Selectivity ratio (IC50 CYPX/IC50 CYP2A6) 2C9/2A6): 0.1 | IC50 ([9]; human, pH 8): 0.71 ± 0.75 µM | IC50 [10]: 9 ± 0.8 µM | selectivity ratio at 40 min ([11]; human, recombinant CYP2B6 BACULOSOMES, pH 8, probe Vivid blue substrate (5 μM), O-dealkylation, read-out: 2B6/2A6 selectivity ratio (IC50 CYPX/IC50 CYP2A6)): 1.2 | selectivity ratio at 40 min ([12]; recombinant CYP2E1 BACULOSOMES, pH 8, probe Vivid blue substrate (10 μM), O-dealkylation, human CYP2E1 versus human CYP2A6, read-out: Selectivity ratio (IC50 CYPX/IC50 CYP2A6) 2E1/2A6): 0.12 | IC50 [13]: 0.86 ± 0.24 µM | selectivity ratio at 30 min [1]: > 54 | Ki ([3]; coumarin 7-hydroxylation): 1.2 ± 0.2 µM | IC50 [3, 18]: 7.4 ± 1.3 µM | fold decrease of CYP2A6 inhibitor potency ([3]; relative to compound 38a): 60 fold

Cn1cnc(-c2cccnc2)c1 [Compound 5]
IC50 [14]: 0.75 ± 0.1 µM | IC50 ([14]; human, pH 7.5): 0.748 ± 0.1 µM | selectivity ratio at 40 min [5, 19]: 163 | selectivity ratio at 40 min [6, 20]: 272 | selectivity ratio at 40 min ([8]; human, read-out: 2C9/2A6 selectivity ratio (IC50 CYPX/IC50 CYP2A6)): 106 | selectivity ratio at 40 min ([11]; human, pH 8): 195 | selectivity ratio at 40 min ([12]; human, pH 8): 5 | selectivity ratio at 30 min [1]: 349 | IC50 [2]: 262 ± 63 µM | half-life at 40 μM [15]: 8.02 h | binding type [16]: Type II | λmax [16]: 429 nm | λmin [16]: 409 nm

NCc1ccc(-c2cccnc2)s1 [Compound 38a, (5-(Pyridin-3-yl)thiophen-2-yl)methanamine]
IC50 [7]: 168 ± 16 µM | IC50 [13]: 40.2 ± 18.1 µM | binding type [17]: type 2
